Target: T1, hOATP1B1 (Homo sapiens, UniProt Q9Y6L6)
T1 sequence (Q9Y6L6 1-691): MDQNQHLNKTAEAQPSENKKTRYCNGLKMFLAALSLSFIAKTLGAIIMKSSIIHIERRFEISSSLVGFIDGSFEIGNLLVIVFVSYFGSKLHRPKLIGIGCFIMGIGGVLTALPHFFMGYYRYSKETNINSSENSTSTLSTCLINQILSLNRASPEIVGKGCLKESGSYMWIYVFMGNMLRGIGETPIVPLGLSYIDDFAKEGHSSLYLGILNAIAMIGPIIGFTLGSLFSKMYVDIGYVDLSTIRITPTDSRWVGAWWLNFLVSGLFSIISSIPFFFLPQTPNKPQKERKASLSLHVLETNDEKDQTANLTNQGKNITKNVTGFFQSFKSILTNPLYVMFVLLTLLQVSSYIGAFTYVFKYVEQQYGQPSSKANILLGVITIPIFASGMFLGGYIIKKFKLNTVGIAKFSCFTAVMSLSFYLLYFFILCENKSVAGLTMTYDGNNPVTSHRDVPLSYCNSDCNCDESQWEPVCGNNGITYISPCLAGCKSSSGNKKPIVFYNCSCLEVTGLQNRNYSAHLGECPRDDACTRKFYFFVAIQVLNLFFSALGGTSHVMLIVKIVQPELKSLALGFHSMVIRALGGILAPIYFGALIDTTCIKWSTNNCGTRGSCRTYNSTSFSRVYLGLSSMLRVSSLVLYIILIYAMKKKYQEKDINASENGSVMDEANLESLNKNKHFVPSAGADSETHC
Experiment: Substrates uptake assay, HEK293A-OATP1B1 cells (3H-ES)
Type: in vitro ADME
Conditions: for Transport activity of OATP1B1 (main text: percentage inhibition): negative control = 100%
Source text: Drug transporters mediate the cellular uptake and efflux of their substrates. Therefore, cell lines overexpressing a drug transporter can be utilized to investigate inhibitors of the transporter by assessing changes in substrate uptake. For each drug transporter, we selected a well-characterized inhibitor as the positive control. Radiolabeled substrates were used to indicate the decrease in transport efficiency when the drug transporters were inhibited by PDQ or the control inhibitors.
The concentrations of the control drugs and the substrates were stated in the assay details. Working solutions of the control inhibitors, the radiolabeled substrates, and each dose of PDQ were prepared at 200 times (200×) more concentrated solutions with DMSO for further dilution.
Transporter-overexpressed cell lines. Human organic anion transporter-overexpressed cell lines MDCKII-OAT1 and S2-OAT3, human organic anion transport polypeptide-overexpressed cell lines HEK293A-OATP1B1 and HEK293A-OATP1B3, human organic cation transporter 2-overexpressed cell line S2-OCT2, and human multi-drug resistance protein MDR1 (or P-gp)-overexpressed cell line MDCKII-MDR1 were gifts from Japan Fuji Biomedical Co., Ltd. (Fuji, Shizuoka Prefecture, Japan). Breast cancer resistance protein-overexpressed vesicles (sf9-BCRP vesicle) were purchased from GenoMembrane Co., Ltd. (Yokohama, Kanagawa, Japan).
Substrates uptake assay. In this assay, we studied the inhibition of PDQ against transporters OAT1, OAT3, OCT2, OATP1B1 and OATP1B3 with MDCKII-OAT1, S2-OAT3, S2-OCT2, HEK293A-OATP1B1and HEK293A-OATP1B3 cells, respectively. The radiolabeled substrates for OAT1, OAT3, OATP1B1, OATP1B3 and OCT2 were […], respectively (Table 5). Probenecid ([…]) was the positive control inhibitor of OAT1 and OAT3, while rifampicin ([…]) served as the control drug of OATP1B1 and OATP1B3. For OCT2, we used […] cimetidine to compare with the inhibitory effect of PDQ. Two times (2×) more concentrated working solutions of the drugs and the substrate were prepared with Dulbecco’s phosphate-buffered saline (DPBS, Gibco, Grand Island, NY, USA.). Then, an equal volume of 2× drug solution and 2× radiolabeled substrate solution were mixed as the working mix. All reagents were pre-warmed to 37 °C.
The cells were digested with 0.05% trypsin/EDTA. The density of the single-cell suspension was adjusted to 2.0 × 10^5 cells/mL for S2 cells and to 1.5 × 10^5 cells/mL for MDCK II and HEK293A cells. The cell suspension was then added to the reservoirs of the 24-well plate for culture until full confluency. The medium in the wells was removed, and the wells were washed with DPBS. Then, the plate was incubated for 10 min with pre-warmed DPBS in the wells. After removing DPBS, […] of working mix was added to each well to initiate the substrate uptake process. The reaction time was 5 min for S2-OCT2 cells, while the other four types of cells were incubated with the reaction mix for 2 min. Cold DPBS was used to terminate the substrate transportation. To each well, […] NaOH ([…]) was added to lyse the cells. Then, […] cell lysate was transferred to the counting vials, and 3 mL scintillation cocktail (Aquasol-2, PerkinElmer, Waltham, MA, USA) was added. […] Each sample was replicated three times (N = 3).
In = [100 × (U − U0)/(Uc − U0)]%(3)
The results were expressed as mean ± standard deviation (SD) and analyzed with GraphPad Prism 8.0 software (CA, USA). The IC50 of PDQ was curve-fitted with the FORECAST function. Statistical significance was calculated using a two-tailed test, and a p value < 0.05 was considered as significant.

CC(C)(O)[C@@H]1CC[C@@](C)([C@H]2CC[C@]3(C)[C@@H]2[C@H](O)C[C@@H]2[C@@]4(C)CC[C@H](O)C(C)(C)[C@@H]4CC[C@]23C)O1 [PDQ, (20S,24S)-dammar-20,24-epoxy-3β, 12β, 25-triol]
DPM (3H-ES uptake by OATP1B1) (inhibitor 0.1 μM): 15255.0±875.8 DPM
Transport activity of OATP1B1 (main text: percentage inhibition) (inhibitor 0.1 μM): 100.9±5.8%
DPM (3H-ES uptake by OATP1B1) (inhibitor 0.3 μM): 16354.0±875.5 DPM
Transport activity of OATP1B1 (main text: percentage inhibition) (inhibitor 0.3 μM): 108.1±5.8%
DPM (3H-ES uptake by OATP1B1) (inhibitor 1 μM): 14584.0±689.5 DPM
Transport activity of OATP1B1 (main text: percentage inhibition) (inhibitor 1 μM): 96.4±4.6%
DPM (3H-ES uptake by OATP1B1) (inhibitor 3 μM): 13110.3±561.2 DPM
Transport activity of OATP1B1 (main text: percentage inhibition) (inhibitor 3 μM): 86.7±3.7%
DPM (3H-ES uptake by OATP1B1) (inhibitor 10 μM): 8070.3±754.4 DPM
Transport activity of OATP1B1 (main text: percentage inhibition) (inhibitor 10 μM): 53.4±5.0%
DPM (3H-ES uptake by OATP1B1) (inhibitor 30 μM): 5983.3±318.4 DPM

— article PMC11173382, “In Vitro Investigations into the Potential Drug Interactions of Pseudoginsenoside DQ Mediated by Cytochrome P450 and Human Drug Transporters” (Molecules, 2024)
